From patent publication US11584726B2 (Beijing Foreland Pharma Co., Ltd., priority 2017, dated 2023)

Experiments:
[1] = tested on: CD8 on peripheral blood cell; experiment: Effects on the expression of CD8 on peripheral blood cell in mice (flow cytometry); type: in vivo, mice (C57 BL/6); conditions: intragastric, once a day for four days, mouse peripheral blood
Experimental: (§1) FITC Rat Anti-Mouse CD8a: BD, Cat. #553030.
(§2) PE Rat Anti-Mouse CD4: BD, Cat. #557308.
(§3) APC Rat Anti-Mouse CD19: BD, Cat. #561738.
(§4) The compounds used in the test were prepared by the chemical department of Beijing Forelandpharma Co. Ltd.
(§5) Routs of administration: intragastric administration, once a day, and continuous administration for four days.
(§6) After the administration, supraorbital venous blood was collected from the mouse, added to an EP tube (1.5 ml) containing an anticoagulant, and kept on the ice. The resulting mixture was transferred to a test tube, centrifuged at 4° C. and 1200 rpm/min for 5 min, removed with the supernatant liquid, added with a lysate, processed with cell lysis on the ice for 5 min, then pre-dyed, added with diluted antibody, and incubated away from light for 30 min. After the incubation, the resulting mixture was washed, removed with the supernatant liquid, added with stationary liquid, and kept in a refrigerator at 4° C. away from light for the test of flow cytometry.

[2] = tested on: CD4 on peripheral blood cell; experiment: Effects on the expression of CD4 on peripheral blood cell in mice (flow cytometry); type: in vivo, mice (C57 BL/6); conditions: intragastric, once a day for four days, mouse peripheral blood
Experimental: as §1, §2, §3, §4, §5, §6

[3] = tested on: CD19 on peripheral blood cell; experiment: Effects on the expression of CD19 on peripheral blood cell in mice (flow cytometry); type: in vivo, mice (C57 BL/6); conditions: intragastric, once a day for four days, mouse peripheral blood
Experimental: as §1, §2, §3, §4, §5, §6

hERG potassium channel = hERG potassium channel (Homo sapiens (Human), UniProt Q12809); experiment: hERG patch clamp test in HEK293 engineering cells; type: cell-based; conditions: HEK293 cells stably expressing hERG potassium channel
Experimental: 1. HEK293 engineering cells stably expressed with hERG potassium channel were used to test the compounds.
The cells were separated by TrypLE™ Express before the test. 3×10^3 of cells were spread on a cover plate, cultured in 24-well plate and tested 18 hours later. The signals produced by voltage stimulation of potassium currents in cells were recorded by electrophysiological techniques.
Data Analysis and Results
First of all, currents after the action of drug of each concentration and blank control were standardized separately
[formula] and then the corresponding inhibition ratio of each concentration was calculated
[formula] The average and the standard error were calculated for each concentration, and 50% inhibiting concentration of each compound was calculated according to the following equation: […]
The dose-dependent effect was obtained through nonlinear fitting with the equation above. C refers to drug concentration, IC50 refers to 50% inhibiting concentration and h refers to hill coefficient. The curve fitting and the calculation of IC50 were processed by IGOR software.

S1P1 = S1P1 (Homo sapiens (Human), UniProt P21453); experiment: PathHunter β-arrestin test S1P1; type: cell-based; conditions: PathHunter β-arrestin engineering cells
Experimental: (§7) 1. PathHunter β-arrestin testing system was used to detect the biological activity of the compounds.
(§8) 2. β-arrestin engineering cells were cultured on […] culture plates and placed in an incubator at 37° C.
(§9) 3. The sample to be tested was diluted with reaction solution in 5-fold dilution.
(§10) 4. The diluted sample to be tested was added to the engineering cells and the reaction was induced and observed.
(§11) 5. The chemiluminescence signal produced in the test may be detected by multifunctional enzyme marker (PerkinElmer Envision™).
(§12) Test Analysis and Results
(§13) 6. The data obtained was analyzed using the data analysis software of CBIS (ChemInnovation, CA) to achieve EC50, and the test results are shown in Table 2.

S1P3 = S1P3 (Homo sapiens (Human), UniProt Q99500); experiment: PathHunter β-arrestin test S1P3; type: cell-based; conditions: PathHunter β-arrestin engineering cells
Experimental: as §7, §8, §9, §10, §11, §12, §13

S1P2 = S1P2 (Homo sapiens (Human), UniProt O95136); experiment: PathHunter β-arrestin test S1P2; type: cell-based; conditions: PathHunter β-arrestin engineering cells
Experimental: as §7, §8, §9, §10, §11, §12, §13

S1P5 = S1P5 (Homo sapiens (Human), UniProt Q9H228); experiment: Fluorescence detection FLIPR assay, activation of GPCR (S1P5); type: cell-based; conditions: total detection time 180 s, read-out: FLIPR Test EC50 S1P5
Experimental: The sample to be tested was dissolved in DMSO and diluted with detection buffer solution in 3-fold dilution. A reagent and a positive control were diluted in the same way.
The reactions of the agonist, the reagent and the positive control were detected by a device of […] with a total detection time of 180 s to estimate the ability to activate GPCR (S1P5) of each compound.

S1P4 = S1P4 (Homo sapiens (Human), UniProt O95977); experiment: PathHunter β-arrestin test S1P4; type: cell-based; conditions: PathHunter β-arrestin engineering cells
Experimental: as §7, §8, §9, §10, §11, §12, §13

[4] = Stability observation on the isolated solid; type: physicochemical; conditions: white solid; stored at low temperature under the protection of nitrogen
Experimental: 0.426 g (0.727 mmol) of intermediate 80 was dissolved in 16 ml of methanol, added with 0.01 ml of concentrated hydrochloric acid, purged with nitrogen to remove air, followed by the addition of 0.09 g of palladium 10% on carbon, purged with hydrogen, and reacted overnight at 95° C. The reaction was monitored by TLC (DCM:MeOH=10:1). After the reaction was completed, the resulting mixture was filtered, and the filter cake was washed with hot methanol. The filtrate was concentrated by rotary evaporation, added with 1% sodium hydrate solution to adjust pH to 9-10. […] Yield: 8.5%. LC-MS: 406 [M+1]^+, tR=1.328 min. A corresponding hydrogenchloride salt was obtained by mixing the solid with a solution of hydrogen chloride in methanol under stirring.

Chain of S1P3 (Q99500 whole entry, species assumed): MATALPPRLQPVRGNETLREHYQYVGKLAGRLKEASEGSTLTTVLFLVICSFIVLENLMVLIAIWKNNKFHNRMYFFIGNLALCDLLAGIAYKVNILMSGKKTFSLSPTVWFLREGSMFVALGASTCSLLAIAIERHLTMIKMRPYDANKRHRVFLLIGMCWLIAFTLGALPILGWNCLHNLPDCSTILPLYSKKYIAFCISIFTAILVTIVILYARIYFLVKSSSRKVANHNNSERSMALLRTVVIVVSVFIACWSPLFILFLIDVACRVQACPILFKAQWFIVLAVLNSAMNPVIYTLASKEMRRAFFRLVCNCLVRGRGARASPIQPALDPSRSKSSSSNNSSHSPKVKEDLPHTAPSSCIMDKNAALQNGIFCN
Chain of S1P4 (O95977 whole entry, species assumed): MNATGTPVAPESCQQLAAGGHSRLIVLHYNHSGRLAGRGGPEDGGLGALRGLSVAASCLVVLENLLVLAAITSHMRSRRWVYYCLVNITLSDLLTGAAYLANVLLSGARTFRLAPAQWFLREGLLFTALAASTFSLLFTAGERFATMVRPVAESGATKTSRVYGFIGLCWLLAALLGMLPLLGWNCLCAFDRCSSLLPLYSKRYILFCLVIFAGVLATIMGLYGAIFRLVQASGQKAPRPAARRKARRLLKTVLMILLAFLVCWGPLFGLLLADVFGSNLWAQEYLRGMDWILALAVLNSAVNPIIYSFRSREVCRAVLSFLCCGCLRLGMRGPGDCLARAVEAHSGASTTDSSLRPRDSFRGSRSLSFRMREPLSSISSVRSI
Chain of S1P1 (P21453 whole entry, species assumed): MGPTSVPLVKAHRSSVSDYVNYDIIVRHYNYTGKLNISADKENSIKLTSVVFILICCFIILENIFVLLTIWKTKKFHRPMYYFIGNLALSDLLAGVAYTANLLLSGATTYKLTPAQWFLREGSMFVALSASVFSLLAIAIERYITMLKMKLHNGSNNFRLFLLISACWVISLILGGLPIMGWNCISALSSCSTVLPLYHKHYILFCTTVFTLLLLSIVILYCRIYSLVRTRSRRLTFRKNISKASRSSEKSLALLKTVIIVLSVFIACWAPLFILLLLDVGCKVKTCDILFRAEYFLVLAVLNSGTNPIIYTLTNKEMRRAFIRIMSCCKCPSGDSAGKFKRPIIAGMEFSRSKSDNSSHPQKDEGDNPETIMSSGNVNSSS
Chain of S1P5 (Q9H228 whole entry, species assumed): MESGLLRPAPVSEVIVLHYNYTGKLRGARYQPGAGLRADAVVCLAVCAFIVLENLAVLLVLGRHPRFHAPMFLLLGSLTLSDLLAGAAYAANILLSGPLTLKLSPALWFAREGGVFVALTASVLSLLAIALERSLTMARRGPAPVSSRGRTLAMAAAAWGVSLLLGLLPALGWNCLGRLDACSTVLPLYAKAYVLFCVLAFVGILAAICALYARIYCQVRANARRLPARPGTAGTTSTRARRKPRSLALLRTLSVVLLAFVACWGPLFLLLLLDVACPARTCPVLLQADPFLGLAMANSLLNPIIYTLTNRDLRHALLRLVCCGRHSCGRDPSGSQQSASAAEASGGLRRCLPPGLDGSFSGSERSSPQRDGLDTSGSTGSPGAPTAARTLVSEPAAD
Chain of S1P2 (O95136 whole entry, species assumed): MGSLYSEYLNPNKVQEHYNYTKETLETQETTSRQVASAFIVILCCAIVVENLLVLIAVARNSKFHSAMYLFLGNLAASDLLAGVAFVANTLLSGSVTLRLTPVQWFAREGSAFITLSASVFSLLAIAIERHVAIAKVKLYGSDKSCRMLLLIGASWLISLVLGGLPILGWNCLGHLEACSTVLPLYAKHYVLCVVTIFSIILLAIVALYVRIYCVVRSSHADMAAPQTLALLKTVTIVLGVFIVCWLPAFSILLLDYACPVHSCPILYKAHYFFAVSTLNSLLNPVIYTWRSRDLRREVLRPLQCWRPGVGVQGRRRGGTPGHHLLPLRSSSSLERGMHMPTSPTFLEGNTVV
Chain of hERG potassium channel (Q12809 whole entry): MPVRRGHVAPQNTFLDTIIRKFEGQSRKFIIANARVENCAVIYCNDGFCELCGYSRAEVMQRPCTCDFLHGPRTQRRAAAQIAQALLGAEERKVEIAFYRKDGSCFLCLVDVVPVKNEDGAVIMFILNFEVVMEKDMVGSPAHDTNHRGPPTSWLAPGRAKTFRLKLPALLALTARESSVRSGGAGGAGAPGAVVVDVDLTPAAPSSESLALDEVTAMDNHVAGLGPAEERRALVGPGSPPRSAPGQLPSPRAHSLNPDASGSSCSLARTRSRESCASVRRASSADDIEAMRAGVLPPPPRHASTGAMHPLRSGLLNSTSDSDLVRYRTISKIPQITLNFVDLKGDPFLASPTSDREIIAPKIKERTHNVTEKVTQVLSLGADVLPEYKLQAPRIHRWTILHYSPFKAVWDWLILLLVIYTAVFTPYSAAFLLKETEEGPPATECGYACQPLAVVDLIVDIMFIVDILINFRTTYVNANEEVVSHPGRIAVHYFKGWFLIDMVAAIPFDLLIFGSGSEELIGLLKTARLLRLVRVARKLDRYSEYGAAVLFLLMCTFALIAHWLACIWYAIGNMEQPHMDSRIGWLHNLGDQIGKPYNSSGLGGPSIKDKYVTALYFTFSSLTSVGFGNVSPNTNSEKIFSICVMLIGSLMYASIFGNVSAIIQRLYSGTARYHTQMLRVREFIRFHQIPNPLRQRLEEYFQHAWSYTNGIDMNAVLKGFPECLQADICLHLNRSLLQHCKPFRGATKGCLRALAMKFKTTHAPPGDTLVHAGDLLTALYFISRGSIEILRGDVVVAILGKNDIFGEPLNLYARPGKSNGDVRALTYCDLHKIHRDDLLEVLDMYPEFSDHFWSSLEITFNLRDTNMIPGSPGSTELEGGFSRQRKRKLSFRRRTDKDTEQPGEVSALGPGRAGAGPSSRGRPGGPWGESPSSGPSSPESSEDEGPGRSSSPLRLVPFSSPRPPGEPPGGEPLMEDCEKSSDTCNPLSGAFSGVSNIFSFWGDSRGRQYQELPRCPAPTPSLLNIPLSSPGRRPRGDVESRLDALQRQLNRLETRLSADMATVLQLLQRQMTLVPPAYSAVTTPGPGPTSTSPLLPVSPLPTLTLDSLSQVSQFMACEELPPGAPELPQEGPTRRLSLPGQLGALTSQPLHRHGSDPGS

EC50 (S1P1) [nM]	EC50 (S1P3) [nM]	EC50 (S1P2) [nM]	EC50 (S1P5) [nM]	EC50 (S1P4) [nM]	stability of the solid [4]	Compound	CD8 (%) ([1]; 1 mg/kg)	CD8 (%) ([1]; 5 mg/kg)	CD4 (%) ([2]; 1 mg/kg)	CD4 (%) ([2]; 5 mg/kg)	CD19 (%) ([3]; 1 mg/kg)	CD19 (%) ([3]; 5 mg/kg)	IC50 (hERG potassium channel) [nM]
						CC(=O)Nc1ccc(-c2nnc(-c3ccc4c(c3)C[C@](N)(CO)CC4)o2)cc1 [Example 9, (S)—N-(4-(5-(7-amino-7-(hydroxymethyl)-5,6,7,8-tetrahydronaphthalen-2-yl)-1,3,4-oxadiazol-2-yl)phenyl)acetamide]	17.3	17.0	33.1	31.9	42.5	44.3	
4.56	2110	> 100000	250	> 100000		CC(C)Oc1ccc(-c2nnc(-c3ccc4c(c3)C[C@](N)(CO)CC4)o2)cc1C#N [Example 3, (S)-5-(5-(7-amino-7-(hydroxymethyl)-5,6,7,8-tetrahydronaphthalen-2-yl)-1,3,4-oxadiazol-2-yl)-2-isopropoxybenzonitrile]	11.9	6.1	22.1	7.2	39.3	24.7	7800
						N[C@@]1(CO)CCc2ccc(-c3nnc(-c4ccc(C(F)(F)F)c(F)c4)o3)cc2C1 [Example 11, (S)-(2-amino-7-(5-(3-fluoro-4-(trifluoromethyl)phenyl)-1,3,4-oxadiazol-2-yl)-1,2,3,4-tetrahydronaphthalen-2-yl)methanol]	14.9	13.8	23.5	20.5	52.1	54.0	
						N[C@@]1(CO)CCc2ccc(-c3nnc(-c4ccc5c(c4)OCO5)o3)cc2C1 [Example 2]	13.0	8.6	23.1	16.4	44.8	35.2	
						CC(C)Oc1ccc(-c2nnc(-c3ccc4c(c3)C[C@](N)(CO)CC4)o2)cc1F [Example 1, (S)-(2-amino-7-(5-(3-fluoro-4-isopropoxyphenyl)-1,3,4-oxadiazol-2-yl)-1,2,3,4-tetrahydronaphthalen-2-yl)methanol]	10.0	1.8	10.9	1.2	39.0	17.5	
21.6	613	> 100000	> 10000	> 100000		CCOc1ccc(-c2nnc(-c3ccc4c(c3)C[C@](N)(CO)CC4)o2)cc1OCC [Example 13, (S)-(2-amino-7-(5-(3,4-diethoxyphenyl)-1,3,4-oxadiazol-2-yl)-1,2,3,4-tetrahydronaphthalen-2-yl)methanol]	12.7	9.4	23.4	11.6	56.8	53.8	
						CC(C)Oc1ccc(-c2nnc(-c3ccc4c(c3)C[C@](N)(CO)CC4)o2)cc1C(F)(F)F [Example 14, (S)-(2-amino-7-(5-(4-isopropoxy-3-(trifluoromethyl)phenyl)-1,3,4-oxadiazol-2-yl)-1,2,3,4-tetrahydronaphthalen-2-yl)methanol]							870
						N#Cc1cc(-c2nnc(-c3ccc4c(c3)C[C@](N)(CO)CC4)o2)ccc1O [Example 5, (S)-5-(5-(7-amino-7-(hydroxymethyl)-5,6,7,8-tetrahydronaphthalen-2-yl)-1,3,4-oxadiazol-2-yl)-2-hydroxybenzonitrile]	16.8	14.7	31.5	27.1	44.3	43.8	
					prone to oxidative degradation	N[C@@]1(CO)CCc2ccc(-c3nnc(-c4ccc(O)c(C(F)(F)F)c4)o3)cc2C1 [Example 10, (S)-4-(5-(7-amino-7-(hydroxymethyl)-5,6,7,8-tetrahydronaphthalen-2-yl)-1,3,4-oxadiazol-2-yl)-2-(trifluoromethyl)phenol]	15.3	14.0	31.1	27.7	44.3	35.7	
						COc1ccc(-c2nnc(-c3ccc4c(c3)C[C@](N)(CO)CC4)o2)cc1F [Example 8, (S)-(2-amino-7-(5-(3-fluoro-4-methoxyphenyl)-1,3,4-oxadiazol-2-yl)-1,2,3,4-tetrahydronaphthalen-2-yl)methanol]	16.6	16.0	33.4	30.0	36.8	41.7	
						N[C@@]1(CO)CCc2ccc(-c3nnc(-c4cc(C(F)(F)F)cc(C(F)(F)F)c4)o3)cc2C1 [Example 12, (S)-(2-amino-7-(5-(3,5-bis(trifluoromethyl)phenyl)-1,3,4-oxadiazol-2-yl)-1,2,3,4-tetrahydronaphthalen-2-yl)methanol]	9.6	3.4	15.2	2.8	53.2	38.1	
						COc1ccc(-c2nnc(-c3ccc4c(c3)C[C@](N)(CO)CC4)o2)cc1C(F)(F)F [Example 6, (S)-(2-amino-7-(5-(4-methoxy-3-(trifluoromethyl)phenyl)-1,3,4-oxadiazol-2-yl)-1,2,3,4-tetrahydronaphthalen-2-yl)methanol]	17.0	5.7	17.8	8.7	34.0	29.1	
						N[C@@]1(CO)CCc2ccc(-c3nnc(-c4ccc(F)c(F)c4)o3)cc2C1 [Example 7, (S)-(2-amino-7-(5-(3,4-difluorophenyl)-1,3,4-oxadiazol-2-yl)-1,2,3,4-tetrahydronaphthalen-2-yl)methanol]	14.5	9.2	26.5	13.4	45.2	40.6	
						CC(C)Oc1ccc(-c2nnc(-c3ccc4c(c3)C[C@](N)(CO)CC4)o2)cc1C(N)=O [Example 4, (S)-5-(5-(7-amino-7-(hydroxymethyl)-5,6,7,8-tetrahydronaphthalen-2-yl)-1,3,4-oxadiazol-2-yl)-2-isopropoxybenzamide]	14.5	12.3	27.1	27.0	47.1	43.6	

Compound	EC50 (S1P1) [nM]	EC50 (S1P3) [nM]	EC50 (S1P2) [nM]	EC50 (S1P5) [nM]	EC50 (S1P4) [nM]	stability of the solid [4]	CD8 (%) ([1]; 1 mg/kg)	CD8 (%) ([1]; 5 mg/kg)	CD4 (%) ([2]; 1 mg/kg)	CD4 (%) ([2]; 5 mg/kg)	CD19 (%) ([3]; 1 mg/kg)	CD19 (%) ([3]; 5 mg/kg)	IC50 (hERG potassium channel) [nM]
CCCCCCCCCCCCC/C=C/[C@@H](O)[C@@H](N)COP(=O)(O)O [Example S1P, sphingosine-1-phosphate, reference compound]	25.2	26.3			190								
